Here are results for four molecules from patent US20250186397A1, “COMPOUNDS FOR THE USE IN THE TREATMENT OF MOOD DISORDERS” (Kanna Health Ltd, priority 2022, published 2025).

Assay [1] has as its target T1, human serotonin transporter (Homo sapiens, UniProt P31645).
T1 construct: expressed in transfected cells; host or cells: CHO cells
The assay is described as follows: SERT assay, [3H] serotonin uptake in transfected CHO cells. Format: cell-based. Particulars: CHO cells with human serotonin transporter, 180 min. How it is done:
Test compounds (conc range), reference compound or vehicle control were incubated for 180 min at room temperature with CHO cells stably transfected with the human serotonin transporter (5×10^3 cells/well) with 0.15 μM [3H] serotonin in the presence or absence of the test or reference compound in buffer containing (in mM); Tris/HCl (pH 7.4) (5), HEPES/Tris (7.5), NaCl (120), KCl (5.4), CaCl2) (1.2), MgSO4 (1.2), Glucose (5) and ascorbic acid (1). Following incubation, [3H] serotonin uptake was quantified by a standard scintillation counting method.
(§1) Data were expressed as the mean of two technical replicates for each data point, and percent inhibition calculated relative to maximum inhibition observed in the presence of the reference comparator rolipram for PDE-4 assays, and imipramine for serotonin assays.

The subject of assay [2] is zebrafish. Particulars: isolated alkaloids, Maphanga et al., 2022; cited from earlier work.
Assay [3] addresses human recombinant PDE-4D2 (Homo sapiens, UniProt Q08499). The assay is described as follows: PDE4-D2 assay (SPA). The settings on record: human recombinant enzyme, 450 nM cAMP; read-out: IC50 PDE-4D2. Format: biochemical. How it is done:
(§2) Test compounds (conc range), reference compound or vehicle control were added to assay buffer containing (in mM); Tris/HCl, pH 7.4 (40), MgCl2 (8) and EGTA/NaOH (1.7), containing 450 nM cAMP (450 nM) and 0.25 μCi (PDE-4B1) or 0.0125 μCi (PDE-4D2) [^3H] CAMP. 20 mins after addition of human recombinant PDE-4B1 (1.2 IEU) or PDE-4D2 (1.5 IEU), SPA beads were added and incubated at 22° C. for a further 30 mins. [^3H]5′AMP was quantified by a standard scintillation counting method.
as §1

In assay [4] the target is human recombinant PDE-4B1 (Homo sapiens, UniProt Q07343). The assay is described as follows: PDE4-B1 assay (SPA). Format: biochemical. Particulars: human recombinant enzyme, 450 nM cAMP. How it is done: as §2, §1
Sequence of human recombinant PDE-4B1 (Q07343 whole entry): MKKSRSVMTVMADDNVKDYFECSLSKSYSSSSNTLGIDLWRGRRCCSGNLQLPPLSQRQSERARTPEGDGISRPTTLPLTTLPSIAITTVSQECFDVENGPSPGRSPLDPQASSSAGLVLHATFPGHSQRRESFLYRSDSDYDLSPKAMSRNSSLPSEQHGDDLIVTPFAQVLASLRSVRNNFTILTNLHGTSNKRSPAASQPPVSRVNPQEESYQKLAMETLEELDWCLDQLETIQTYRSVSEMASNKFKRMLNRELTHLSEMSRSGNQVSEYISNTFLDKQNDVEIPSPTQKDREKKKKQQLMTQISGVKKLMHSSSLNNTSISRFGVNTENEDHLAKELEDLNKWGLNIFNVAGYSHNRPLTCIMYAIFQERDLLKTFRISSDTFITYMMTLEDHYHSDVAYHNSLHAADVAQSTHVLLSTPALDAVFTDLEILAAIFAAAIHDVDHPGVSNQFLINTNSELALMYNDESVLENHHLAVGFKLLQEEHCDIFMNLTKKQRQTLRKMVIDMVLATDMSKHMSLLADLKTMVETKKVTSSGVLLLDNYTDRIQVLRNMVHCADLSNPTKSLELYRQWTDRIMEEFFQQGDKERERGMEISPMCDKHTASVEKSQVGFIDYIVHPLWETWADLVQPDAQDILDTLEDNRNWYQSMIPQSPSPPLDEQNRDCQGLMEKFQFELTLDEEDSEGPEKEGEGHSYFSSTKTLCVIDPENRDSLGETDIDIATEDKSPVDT

T1 sequence (P31645 whole entry): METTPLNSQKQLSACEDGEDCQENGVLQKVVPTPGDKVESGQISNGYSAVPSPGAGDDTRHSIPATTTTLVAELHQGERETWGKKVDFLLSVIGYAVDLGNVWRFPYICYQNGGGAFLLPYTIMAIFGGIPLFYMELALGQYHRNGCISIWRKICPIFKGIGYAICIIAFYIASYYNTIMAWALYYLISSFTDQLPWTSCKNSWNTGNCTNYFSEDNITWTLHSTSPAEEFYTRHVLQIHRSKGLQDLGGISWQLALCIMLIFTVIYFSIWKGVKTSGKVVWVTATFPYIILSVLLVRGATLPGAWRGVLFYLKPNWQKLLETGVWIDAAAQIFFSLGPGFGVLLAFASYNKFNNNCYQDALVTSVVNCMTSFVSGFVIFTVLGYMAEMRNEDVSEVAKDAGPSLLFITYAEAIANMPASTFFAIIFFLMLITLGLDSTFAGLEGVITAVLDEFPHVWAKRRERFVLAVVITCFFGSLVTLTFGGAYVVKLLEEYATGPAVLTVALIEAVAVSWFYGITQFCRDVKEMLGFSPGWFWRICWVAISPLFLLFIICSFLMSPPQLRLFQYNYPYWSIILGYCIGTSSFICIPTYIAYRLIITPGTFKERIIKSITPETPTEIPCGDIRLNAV
Sequence of human recombinant PDE-4D2 (Q08499 303-809 limits assumed): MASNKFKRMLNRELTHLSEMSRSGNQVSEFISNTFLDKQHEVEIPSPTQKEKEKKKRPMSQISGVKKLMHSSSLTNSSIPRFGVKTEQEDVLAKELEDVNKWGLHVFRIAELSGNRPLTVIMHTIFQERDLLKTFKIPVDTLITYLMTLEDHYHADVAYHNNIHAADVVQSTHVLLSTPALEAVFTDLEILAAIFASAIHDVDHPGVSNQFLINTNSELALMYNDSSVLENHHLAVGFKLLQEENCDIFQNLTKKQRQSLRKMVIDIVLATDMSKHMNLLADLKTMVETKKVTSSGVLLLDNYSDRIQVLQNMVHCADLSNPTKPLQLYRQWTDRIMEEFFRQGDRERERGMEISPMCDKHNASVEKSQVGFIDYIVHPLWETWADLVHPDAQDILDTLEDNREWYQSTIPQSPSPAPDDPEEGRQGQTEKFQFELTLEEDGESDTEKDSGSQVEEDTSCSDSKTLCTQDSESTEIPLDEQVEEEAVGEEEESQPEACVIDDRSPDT

Turning to `COc1ccc(C2CNC(=O)C2)cc1OC1CCCC1` (centres unmarked) [Rolipram, reference compound], the concentration for half-maximal inhibition (IC50) (commonly the concentration needed to halve the response being measured) in assay [1] worked out at 23.2 nM. Consider `COc1ccc([C@@]23C=CC(=O)C[C@@H]2N(C)CC3)cc1OC` [mesembrenone], for which the “effect in zebrafish model of anxiety” value in assay [2] is recorded as “anxiolytic-like effect”.

On to `COc1ccc([C@@]23CCC(=O)C[C@@H]2N(C)CC3)cc1OC` [mesembrine], for which the “effect in zebrafish model of anxiety” value in assay [2] is recorded as “anxiolytic-like effect”.

Take `CN(C)CCCN1c2ccccc2CCc2ccccc21` [Imipramine, reference compound]: the IC50 is 144 to 300 nM in assay [3] and 1600 nM in assay [4].
